Assay results as given in patent publication US20160238590A1, “COMPOSITIONS AND METHODS RELATED TO OAT SENSITIVITY” (IMMUSANT, INC., priority 2013, published 2016).
Where no end group is shown, it is not given here. [ ]: non-standard residue; d: D form. pGlu = O=C1CC[C@@H](C(=O)O)N1

Legend:
Assay type in all cases: cell-based, human
[1] = test system: Patient 14 TCC-01; experiment: IFN-γ ELISpot with T cell clone; conditions: TCC Patient 14 TCC-01 (Table 5); mean no antigen 11.3, high background, SFU >25 considered as positive responses
Procedure: (§1) Peripheral blood mononuclear cells (PBMC) were isolated from heparinized whole blood using Ficoll-Paque™ Plus density-gradient centrifugation (GE Healthcare). IFN-γ ELISpot (Mabtech) was set up as previously described^8.
(§2) Isolation of TCC from CD patients was carried out as previously described^8. Briefly, CFSE-labeled PBMC were incubated with antigen for 7 days in IMDM supplemented with 5% heat-inactivated pooled human serum (PHS), 2 mM GlutaMAX™, 100 μM MEM non-essential amino acids (both from Gibco, Invitrogen), and 50 μM 2-mercaptoethanol (Sigma). Proliferated cells were single-cell sorted into 96-well plates containing IL-2, IL-4, anti-CD3 mAb, irradiated feeder cells (allogeneic PBMC and JY-EBV). TCC were expanded and maintained in IL-2 and IL-4 and tested for specificity by ELISpot with irradiated HLA-matched PBMC as antigen-presenting cells. Expanded clones were tested for HLA-DQ restriction, TCR Vbeta usage, and with lysine scans to work out minimal epitopes. See Table 1 below for TCC and epitope information.

[2] = test system: Patient 2 TCC-01; experiment: IFN-γ ELISpot with T cell clone; conditions: TCC Patient 2 TCC-01 (Table 5); mean no antigen 1.1
Procedure: as §1, §2

[3] = test system: Patient 6 TCC-01; experiment: IFN-γ ELISpot with T cell clone; conditions: TCC Patient 6 TCC-01 (Table 5); mean no antigen 2
Procedure: as §1, §2

[4] = test system: PBMC; experiment: IFN-γ ELISpot on PBMC of CD patients on day 6 after 3-day oats challenge; conditions: after 3-day oats challenge
Text: Australian Caucasian HLA-DQ2.5^+ and/or HLA-DQ8^+ CD subjects were recruited by advertisement in the Coeliac Society of Victoria newsletter and all had biopsy-proven CD conforming to ESPGHAN criteria. Patients had been on strict gluten free diet for at least 4 weeks prior to commencing grain challenge. Patients underwent 3-day grain challenge with oats, barley, or combined wheat, barley, and rye muffins, and 6 days after commencement, blood was collected. Day 0 responses were not observed in the selection of patients tested, as described previously^8.
Oats challenge consisted of 100 g dry weight daily of one of three commercial brands of oats: one not tested for wheat contamination (Uncle Toby's; Oats #1), and two shown by R5 ELISA to contain less than 20 ppm wheat gluten (Tilquhilie Pudding; Oats #2 and Freedom Food; Oats #3). Barley challenge consisted of pearl barley (Ward McKenzie) cooked into a risotto (150 g dry weight daily) and the wheat challenge consisted of four 50 g slices of wheat bread daily (Baker's Delight white loaf cut to toasting thickness). The combined wheat, barley, and rye challenge consisted of muffins baked with wheat flour (White Wings), barley flour (Four Leaf Milling), and rye flour (Four Leaf Milling; 22-25 g dry weight each daily). A symptom diary based on a […] Likert scale was completed by participants daily from baseline until day 6.
Two avenin peptide libraries were utilized for epitope screening. These were designed using avenin sequences from GenBank and a customized algorithm, as previously described^9. The initial library consisted of 199 screening-grade 20 mers including all possible 12 mers (Mimotopes). This library was screened with and without tTG pre-treatment. The second library consisted of additional avenin sequences that were synthesized with glutamate substitution at sites predicted to be deamidated by published algorithms^10, 11 removing the requirement for tTG treatment. This library contained 369 screening-grade 20 mers, including all possible 12 mers (Pepscan). The second round avenin library contained wild-type and deamidated versions of the most immunogenic sequences (25 high quality 16 mers from Mimotopes). High quality peptides containing previously described immunogenic sequences from wheat, barley, and rye were used to test for cross-reactivity^8 (Pepscan). High quality hordein and avenin peptides for TCC testing and biochemical studies were ordered from Pepscan, Mimotopes, or GL Biochem.
as §1

Row | Substance | IFN-γ ELISpot response (raw SFU) [1] [SFU] | IFN-γ ELISpot response (raw SFU) [2] [SFU] | IFN-γ ELISpot response (raw SFU) [3] [SFU] | other results
1 | pEQPQPYPEQPQPYP ([pGlu]QPQPYPEQPQPYP) [barley peptide, AFM77740.1 (31-44) [Q31 to pyroglutamate, Q38 to E]] | 27 | 316 | 52 | 
2 | pEPEQIIPEQPEQPS ([pGlu]PEQIIPEQPEQPS) [rye peptide, AAB58403.1 (195-208) [Q195 to pyroglutamate, Q202 to E, Q205 to E], reference compound] | 59 | 2 | 3 | 
3 | PQPYPEQPQPFPQQPP [barley peptide, 1103203B (39-54) [Q44 to E]] | 12 | 292 | 69 | 
4 | SEQYQPYPEQQEPFVQ [avenin peptide of Genbank Q09097.1, wild-type] |  |  |  | IFN-γ ELISpot response (raw SFU) ([4]; patient P1, peptide 1 μg/ml): 3 SFU; IFN-γ ELISpot response (raw SFU) ([4]; patient P1, peptide 10 μg/ml): 5 SFU; IFN-γ ELISpot response (raw SFU) ([4]; patient P1, peptide 100 μg/ml): 3 SFU; IFN-γ ELISpot response (raw SFU) ([4]; patient P2, peptide 1 μg/ml): 3 SFU; IFN-γ ELISpot response (raw SFU) ([4]; patient P2, peptide 10 μg/ml): 3 SFU; IFN-γ ELISpot response (raw SFU) ([4]; patient P2, peptide 100 μg/ml): 16 SFU; significant SFU as a percentage of maximal peptide SFU ([4]; patient P2, peptide 100 μg/ml): * (*: 20-40%); IFN-γ ELISpot response (raw SFU) ([4]; patient P3, peptide 1 μg/ml): 8 SFU; IFN-γ ELISpot response (raw SFU) ([4]; patient P3, peptide 10 μg/ml): 9 SFU; IFN-γ ELISpot response (raw SFU) ([4]; patient P3, peptide 100 μg/ml): 4 SFU; IFN-γ ELISpot response (raw SFU) ([4]; patient P11, peptide 1 μg/ml): 0 SFU; IFN-γ ELISpot response (raw SFU) ([4]; patient P11, peptide 10 μg/ml): 0 SFU; IFN-γ ELISpot response (raw SFU) ([4]; patient P11, peptide 100 μg/ml): 0 SFU; IFN-γ ELISpot response (raw SFU) ([4]; patient P12, peptide 1 μg/ml): 1 SFU; IFN-γ ELISpot response (raw SFU) ([4]; patient P12, peptide 10 μg/ml): 3 SFU; IFN-γ ELISpot response (raw SFU) ([4]; patient P12, peptide 100 μg/ml): 0 SFU; IFN-γ ELISpot response (raw SFU) ([4]; patient P13, peptide 50 μg/ml): 9 SFU
5 | pEPFPEQPEQPFPQP ([pGlu]PFPEQPEQPFPQP) [wheat peptide, ACO40292.1 (81-94) [Q81 to pyroglutamate, Q85 to E, Q88 to E], reference compound] | 14 | 119 | 5 | 
6 | pEQPFPEQPFPEQPQPY ([pGlu]QPFPEQPFPEQPQPY) [barley peptide, AFM77740.1 (21-36) [Q21 to pyroglutamate, Q26 to E, Q31 to E]] | 27 | 229 | 64 | 
7 | QPYPEQEQPILEEELLLQQQ [oats avenin peptide, CBL51491.1 (22-41) [Q28, Q33, Q34, Q35 to E]; one of two coded A01] |  | 275 | 16 | 
8 | FPEQPIPEQPQPYP [barley peptide, 1103203A (30-43) [Q232 to E, Q37 to E]] | 66 | 1 | 92 | 
